The record followed here is the PolyMetriX glass transition set.

In turn, `*CC(O)COC(=O)CCCCCCCCCCC(=O)OCC(O)COc1ccc(O*)cc1` (repeat unit) had a glass transition temperature of 10.00 °C. In turn, `*CCCC(=O)Nc1ccc(NC(=O)CCCN2C(=O)c3ccc(C(=O)c4ccc5c(c4)C(=O)N(*)C5=O)cc3C2=O)cc1` (repeat unit) showed a glass transition temperature of 209.00 °C. The result for `*CCCC(=O)Nc1ccc(Oc2ccc(NC(=O)CCCN3C(=O)c4ccc(C(=O)c5ccc6c(c5)C(=O)N(*)C6=O)cc4C3=O)cc2)cc1` (repeat unit) reads 198.00 °C. For the compound `*CCCC(=O)Nc1ccc(Oc2ccc(Oc3ccc(NC(=O)CCCN4C(=O)c5ccc(C(=O)c6ccc7c(c6)C(=O)N(*)C7=O)cc5C4=O)cc3)cc2)cc1` (repeat unit), the glass transition temperature was 178.00 °C. Take `*CCCC(C)(C)CNC(=O)C(=O)N*` (repeat unit): the glass transition temperature is 109.00 °C. Consider `*CCCC(C)(C)CNC(=O)CCCC(=O)N*` (repeat unit), for which the glass transition temperature worked out at 82.00 °C.

`*CCCC(C)(C)CNC(=O)CCCCC(=O)N*` (repeat unit): the glass transition temperature stood at 77.00 °C.

As for `*CCCC(C)(C)CNC(=O)c1ccc(C(=O)N*)cc1` (repeat unit), the glass transition temperature turned out to be 157.00 °C. `*CCCC(C)CN1C(=O)c2ccc(C(=O)Oc3ccc4cc(OC(=O)c5ccc6c(c5)C(=O)N(*)C6=O)ccc4c3)cc2C1=O` (repeat unit) came in with a glass transition temperature of 130.00 °C. To `*CCCC(C)CNC(=O)c1ccc(C(=O)N*)cc1` (repeat unit) belongs 153.00 °C; to `*CCCC(CCNC(=O)c1ccc(C(=O)N*)cc1)C(C)C` (repeat unit), 150.00 °C; to `*CCCCC(=O)NCc1ccc(CNC(=O)CCCCO*)cc1` (repeat unit), 70.00 °C.

In the case of `*CCCCC(=O)NCc1ccc(CNC(=O)CCCCS*)cc1` (repeat unit), the glass transition temperature turned out to be 70.00 °C. As to `*CCCCC(=O)O*` (repeat unit), the glass transition temperature is -66.00 °C. The compound `*CCCCCC(=O)Nc1ccc(Oc2ccc(Oc3ccc(NC(=O)CCCCCN4C(=O)c5ccc(C(=O)c6ccc7c(c6)C(=O)N(*)C7=O)cc5C4=O)cc3)cc2)cc1` (repeat unit) came in with a glass transition temperature of 158.00 °C.

`*CCCCCC(=O)Oc1ccc(OC(=O)CCCCCn2c(=O)c3cc4c(=O)n(*)c(=O)c4cc3c2=O)c(-c2ccccc2)c1` (repeat unit) showed a glass transition temperature of 82.00 °C. For `*CCCCCC(=O)Oc1ccc(OC(=O)CCCCCn2c(=O)c3cc4c(=O)n(*)c(=O)c4cc3c2=O)c(Cl)c1` (repeat unit), the glass transition temperature was found to be 87.00 °C. `*CCCCCC(=O)Oc1ccc2ccc(OC(=O)CCCCCn3c(=O)c4cc5c(=O)n(*)c(=O)c5cc4c3=O)cc2c1` (repeat unit): the glass transition temperature was found to be 98.00 °C. As for `*CCCCCCCCCCC(=O)Nc1ccc(Cc2ccc(NC(=O)CCCCCCCCCCN3C(=O)c4ccc(C(=O)c5ccc6c(c5)C(=O)N(*)C6=O)cc4C3=O)cc2)cc1` (repeat unit), the glass transition temperature was determined as 136.00 °C. `*CCCCCCCCCCC(=O)Nc1ccc(Oc2ccc(NC(=O)CCCCCCCCCCN3C(=O)c4ccc(C(=O)c5ccc6c(c5)C(=O)N(*)C6=O)cc4C3=O)cc2)cc1` (repeat unit) displayed a glass transition temperature of 132.00 °C.

As for `*CCCCCCCCCCC(=O)Nc1ccc(Oc2cccc(NC(=O)CCCCCCCCCCN3C(=O)c4ccc(C(=O)c5ccc6c(c5)C(=O)N(*)C6=O)cc4C3=O)c2)cc1` (repeat unit), the glass transition temperature came out at 126.00 °C. As for `*CCCCCCCCCCC(=O)Oc1ccc2cc(OC(=O)CCCCCCCCCCn3c(=O)c4cc5c(=O)n(*)c(=O)c5cc4c3=O)ccc2c1` (repeat unit), the glass transition temperature came to 66.00 °C. Consider `*CCCCCCCCCCC(Cl)C(*)Cl` (repeat unit), for which the glass transition temperature was -32.00 °C.

With `*CCCCCCCCCCC(c1ccc(O)cc1)C(*)c1ccc(O)cc1C` (repeat unit), the glass transition temperature is -4.00 °C. As for `*CCCCCCCCCCCCC(=O)O*` (repeat unit), the glass transition temperature is -36.00 °C. To `*CCCCCCCCCCCCC(c1ccc(O)cc1)C(*)c1ccc(O)cc1C` (repeat unit) belongs -1.00 °C; to `*CCCCCCCCCCCCCCC(=O)N*` (repeat unit), -7.00 °C; to `*CCCCCCCCCCCCNC(=O)CCCCCCCCCCCCC(=O)N*` (repeat unit), 49.00 °C. In the case of `*CCCCCCCCCCCNC(=O)CCCCCCCCCCCCCCCCCCC(=O)N*` (repeat unit), the glass transition temperature was determined as 29.00 °C. The result for `*CCCCCCCCCCNC(=O)CCCCCCCCCCC(=O)N*` (repeat unit) reads 49.00 °C; that for `*CCCCCCCCCCSS*` (repeat unit), -65.00 °C; that for `*CCCCCCCCCCSSS*` (repeat unit), -70.00 °C. To `*CCCCCCCCCNC(=O)CCCCCCCCCCCCCCCCCCC(=O)N*` (repeat unit) belongs 42.00 °C; to `*CCCCCCCCCn1c(=O)c2cc3c(=O)n(*)c(=O)c3cc2c1=O` (repeat unit), 110.00 °C; to `*CCCCCCCNC(=O)CCCCCCCCCCCCCCCCCCC(=O)N*` (repeat unit), 46.00 °C.

For `*CCCCCCOC(=O)CCCCCCCCCCCCCCCCCCC(=O)OCCCCCCN1C(=O)c2ccc(S(=O)(=O)c3ccc4c(c3)C(=O)N(*)C4=O)cc2C1=O` (repeat unit), the glass transition temperature worked out at 19.00 °C. In the case of `*CCCCCNC(=O)CCCCCCCCCCCCCCCCCCC(=O)N*` (repeat unit), the glass transition temperature was found to be 52.00 °C. `*CCCCCOC(=O)CCCCCCCCCCN1C(=O)c2ccc(-c3ccc(-c4ccc5c(c4)C(=O)N(CCCCCCCCCCC(=O)OCCCCCN4C(=O)c6ccc(-c7ccc8c(c7)C(=O)N(*)C8=O)cc6C4=O)C5=O)cc3)cc2C1=O` (repeat unit): the glass transition temperature amounted to 41.00 °C. To `*CCCCCOCO*` (repeat unit) belongs -80.00 °C. In the case of `*CCCCCSS*` (repeat unit), the glass transition temperature was -72.00 °C.

As to `*CCCCOC(=O)CCCCCCCCCCCCCCCCCCCCCCCCCCCCCCCCCCC(=O)O*` (repeat unit), the glass transition temperature was -55.00 °C. The result for `*CCCN(*)C(=O)CC` (repeat unit) reads 8.00 °C; that for `*CCCN(*)C(=O)CCCCC` (repeat unit), -16.00 °C.

The compound `*CCCN(*)C(=O)c1ccccc1` (repeat unit) had a glass transition temperature of 72.00 °C. The result for `*CCCNC(=O)CCCCC(=O)NCCCN(*)C` (repeat unit) reads 5.00 °C.

With `*CCCP(C)(=O)CCCNC(=O)CCCCC(=O)N*` (repeat unit), the glass transition temperature came out at 33.00 °C.

`*CCC[Si](*)(C)C` (repeat unit): the glass transition temperature was -55.00 °C. For the compound `*CCC[Si](*)(C)O[Si](C)(C)CCCOc1ccc(-c2ccc(C#N)cc2)cc1` (repeat unit), the glass transition temperature is -4.60 °C.

`*CCC[Si](*)(C)O[Si](C)(C)CCCOc1ccc(C#N)cc1` (repeat unit): the glass transition temperature was -45.50 °C.

`*CCC[Si](*)(C)O[Si](C)(C)CCCOc1ccc(C(=O)Oc2ccc(-c3ccc(C#N)cc3)cc2)cc1` (repeat unit) displayed a glass transition temperature of 10.10 °C. Compound `*CCC[Si](*)(C)c1ccc(N(C)C)cc1` (repeat unit) registered a glass transition temperature of 6.50 °C. `*CCC[Si](*)(C[Si](C)(C)c1ccccc1)C[Si](C)(C)c1ccccc1` (repeat unit): the glass transition temperature is -36.00 °C.

As to `*CCC[Si](C)(C)O[Si](C)(C)CCCN1C(=O)c2ccc(C(=O)c3ccc4c(c3)C(=O)N(*)C4=O)cc2C1=O` (repeat unit), the glass transition temperature was determined as 68.00 °C. `*CC[CH2][Sn]([CH3])([CH3])[CH2]CCOC(=O)C(CCCCCCCCOc1ccc(-c2ccc(OCc3ccc(C#N)cc3)cc2)cc1)C(=O)O*` (repeat unit) yielded a glass transition temperature of 22.00 °C. Consider `*CCOC(=O)CCCCCCCCCCC(=O)OCCOC(=O)c1ccc(C(=O)O*)cc1` (repeat unit), for which the glass transition temperature was -8.00 °C. `*CCOCCOC(=O)CCCCCCCCCCCCCCCCC(=O)O*` (repeat unit): the glass transition temperature was -68.00 °C.

In the case of `*NC1CCC(CCC2CCC(NC(=O)CCCCCCCCCCC(*)=O)CC2)CC1` (repeat unit), the glass transition temperature amounted to 105.00 °C.

In turn, `*Nc1ccc(Cc2ccc(NC(=O)c3cc(NC(=O)CCCCCCCCCCN4C(=O)c5ccccc5C4=O)cc(C(*)=O)c3)cc2)cc1` (repeat unit) showed a glass transition temperature of 150.00 °C.

Take `*Nc1ccc(Cc2ccc(NC(=O)c3cc(NC(=O)c4ccncc4)cc(C(*)=O)c3)cc2)cc1` (repeat unit): the glass transition temperature was determined as 302.00 °C.

Consider `*Nc1ccc(NC(=O)c2cc(-c3ccc(C(=O)O)c(C(*)=O)c3)ccc2C(=O)O)cc1` (repeat unit), for which the glass transition temperature came to 248.40 °C. The result for `*Nc1ccc(NC(=O)c2cc(-c3ccc(C(=O)OC)c(C(*)=O)c3)ccc2C(=O)OC)cc1` (repeat unit) reads 234.20 °C; that for `*OC(=O)C(Cc1ccccc1)NC(=O)CCCCCCCCCCC(=O)NC(Cc1ccccc1)C(=O)OC1COC2C(*)COC12` (repeat unit), 76.00 °C. `*Oc1ccc(-c2ccc(OC(=O)CCCCCCCCCCCCC(*)=O)cc2)cc1` (repeat unit) displayed a glass transition temperature of 95.00 °C. Take `*Oc1ccc(NC(=O)c2cc(C(=O)Nc3ccc(Oc4ccc(C(C)(C)c5ccc(*)cc5)cc4)cc3)cc(C(C)(C)C)c2)cc1` (repeat unit): the glass transition temperature is 244.00 °C. To `*Oc1ccc(NC(=O)c2cc(NC(=O)c3ccc(OC(C)=O)cc3)cc(C(=O)Nc3ccc(Oc4ccc(C(C)(C)c5ccc(*)cc5)cc4)cc3)c2)cc1` (repeat unit) belongs 243.00 °C; to `*c1cccc(NC(=O)CCCCCCCCCCC(=O)Nc2cccc(S(*)(=O)=O)c2)c1` (repeat unit), 107.00 °C.

The compound `*c1nc(-c2ccccc2)nc(N(C)CCCCCCN(*)C)n1` (repeat unit) returned a glass transition temperature of 57.00 °C.
